Results reported in patent US12227488B2, “Small molecule degraders of Helios and methods of use” (DANA-FARBER CANCER INSTITUTE, INC., priority 2018, dated 2025).

Tests used:
CRBN and Helios (IKZF2) = target: T1, CRBN and Helios (IKZF2) (Homo sapiens, UniProt Q96SW2+Q9UKS7); assay: TR-FRET dimerization assay (CRBN-IKZF2 ternary complex formation); format: binding; details: n=1
T1 construct: His (N); Strep (N)
Summary of the method: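 BODIPY-labeled DDB1ΔB-CRBN and in vitro biotinylated IKZF2 were treated with increasing compound concentrations plus tracer Terbium-Streptavidin and incubated 15 min at rt. Recruitment was quantified as the 520/490 nm TR-FRET ratio; values are single measurements (n=1), each averaged from at least three technical replicates.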

IKZF2 = assay: Cellular degradation assay, eGFP-IKZF2Δ fusion with mCherry reporter in Flp-In 293 cells; format: cell-based; details: 5 h incubation, n=1
Summary of the method: (§1)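 Flp-In 293 cells stably expressing eGFP-tagged degron fusions with P2A-mCherry reporter were treated with compound titrations (0.5% DMSO) for 5 hours. Imaging quantified GFP-positive/mCherry-positive cell fraction per well; DC50 at 5 h from nonlinear variable-slope fit.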

IKZF1 = target: T2, IKZF1 (Homo sapiens, UniProt Q13422); assay: Cellular degradation assay, eGFP-IKZF1Δ fusion with mCherry reporter in Flp-In 293 cells; format: cell-based; details: 5 h incubation, n=1
T2 construct: expressed in transfected cells; host or cells: Flp-In 293
Summary of the method: as §1

SALL4 ZNF1-2 = target: T3, SALL4 ZNF1-2 (Homo sapiens, UniProt Q96SW2+Q9UJQ4); assay: Cellular degradation assay, eGFP-SALL4 ZnF1-2 fusion with mCherry reporter in Flp-In 293 cells; format: cell-based; details: 5 h incubation, n=1
T3 construct: IKZF1Δ, IKZF2Δ, GSPT1 and SALL4 ZnF1-2 were subcloned; expressed in transfected cells; host or cells: Flp-In 293
Summary of the method: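 Flp-In 293 cells stably expressing eGFP-SALL4 ZnF1-2 fusion plus mCherry reporter were treated with compound titrations (0.5% DMSO) for 5 hours. Imaging at 488/561 nm gave, per well, the fraction of GFP-positive among mCherry-positive cells.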

GSPT1 = GSPT1 (Homo sapiens, UniProt P15170+Q96SW2); assay: Cellular degradation assay, eGFP-GSPT1 fusion with mCherry reporter in Flp-In 293 cells; format: cell-based; parameters: expressed in transfected cells; host or cells: Flp-In 293; details: 5 h incubation, n=1
Summary of the method: as §1

[1] = compound concentration 6.6667E−05
[2] = compound concentration 6.6667E−06
[3] = compound concentration 6.6667E−07 (667 nM)
[4] = compound concentration 2.00E−05
[5] = compound concentration 2.00E−06
[6] = compound concentration 2.00E−07

T3 sequence (Q9UJQ4 378-438 limits assumed): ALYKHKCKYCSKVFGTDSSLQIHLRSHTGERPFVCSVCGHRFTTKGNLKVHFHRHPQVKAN
T3 sequence (Q96SW2 whole entry, the tested form may be a part): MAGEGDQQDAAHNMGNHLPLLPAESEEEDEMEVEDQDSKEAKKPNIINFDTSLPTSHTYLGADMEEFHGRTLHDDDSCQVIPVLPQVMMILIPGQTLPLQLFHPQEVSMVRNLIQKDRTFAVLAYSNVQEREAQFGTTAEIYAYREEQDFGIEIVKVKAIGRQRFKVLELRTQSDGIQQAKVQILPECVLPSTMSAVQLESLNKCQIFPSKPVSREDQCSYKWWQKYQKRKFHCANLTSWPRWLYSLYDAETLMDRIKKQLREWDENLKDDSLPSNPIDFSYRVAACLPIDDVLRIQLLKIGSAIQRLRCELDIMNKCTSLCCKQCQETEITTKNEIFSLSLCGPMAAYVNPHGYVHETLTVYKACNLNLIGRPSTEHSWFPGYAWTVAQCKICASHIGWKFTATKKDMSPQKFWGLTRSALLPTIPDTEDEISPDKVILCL
T3 sequence (Q16531 whole entry partner, the tested form may be a part): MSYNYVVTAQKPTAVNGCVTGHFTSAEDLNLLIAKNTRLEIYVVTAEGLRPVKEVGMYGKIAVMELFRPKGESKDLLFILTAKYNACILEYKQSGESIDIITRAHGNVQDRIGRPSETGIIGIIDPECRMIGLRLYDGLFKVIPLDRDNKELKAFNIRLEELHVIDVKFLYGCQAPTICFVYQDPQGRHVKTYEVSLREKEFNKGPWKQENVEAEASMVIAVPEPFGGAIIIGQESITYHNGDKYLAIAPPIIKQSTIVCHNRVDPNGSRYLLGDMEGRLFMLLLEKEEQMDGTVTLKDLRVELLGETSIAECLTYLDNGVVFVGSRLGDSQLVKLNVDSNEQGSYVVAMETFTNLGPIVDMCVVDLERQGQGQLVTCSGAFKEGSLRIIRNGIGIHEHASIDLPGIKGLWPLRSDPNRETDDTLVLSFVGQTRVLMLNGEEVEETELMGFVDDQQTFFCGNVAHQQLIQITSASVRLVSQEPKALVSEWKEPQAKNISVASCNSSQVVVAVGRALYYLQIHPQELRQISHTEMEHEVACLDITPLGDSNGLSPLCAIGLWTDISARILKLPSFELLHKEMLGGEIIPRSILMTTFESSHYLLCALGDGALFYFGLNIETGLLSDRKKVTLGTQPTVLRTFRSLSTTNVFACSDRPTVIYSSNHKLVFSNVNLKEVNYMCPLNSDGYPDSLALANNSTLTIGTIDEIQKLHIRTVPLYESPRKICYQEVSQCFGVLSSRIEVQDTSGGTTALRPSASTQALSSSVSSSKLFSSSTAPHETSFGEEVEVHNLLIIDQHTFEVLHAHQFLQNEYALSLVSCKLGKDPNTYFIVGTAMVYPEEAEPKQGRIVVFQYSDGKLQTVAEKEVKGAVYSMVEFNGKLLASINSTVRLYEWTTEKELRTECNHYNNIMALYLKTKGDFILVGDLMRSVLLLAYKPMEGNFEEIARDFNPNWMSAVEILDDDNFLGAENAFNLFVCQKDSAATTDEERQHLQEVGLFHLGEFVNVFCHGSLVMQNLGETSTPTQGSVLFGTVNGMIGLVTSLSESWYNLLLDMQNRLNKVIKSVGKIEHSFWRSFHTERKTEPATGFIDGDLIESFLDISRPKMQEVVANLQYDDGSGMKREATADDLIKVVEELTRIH
T1 sequence (Q96SW2 whole entry): as the sequence (Q96SW2 whole entry, the tested form may be a part) above
T1 sequence (Q9UKS7 whole entry): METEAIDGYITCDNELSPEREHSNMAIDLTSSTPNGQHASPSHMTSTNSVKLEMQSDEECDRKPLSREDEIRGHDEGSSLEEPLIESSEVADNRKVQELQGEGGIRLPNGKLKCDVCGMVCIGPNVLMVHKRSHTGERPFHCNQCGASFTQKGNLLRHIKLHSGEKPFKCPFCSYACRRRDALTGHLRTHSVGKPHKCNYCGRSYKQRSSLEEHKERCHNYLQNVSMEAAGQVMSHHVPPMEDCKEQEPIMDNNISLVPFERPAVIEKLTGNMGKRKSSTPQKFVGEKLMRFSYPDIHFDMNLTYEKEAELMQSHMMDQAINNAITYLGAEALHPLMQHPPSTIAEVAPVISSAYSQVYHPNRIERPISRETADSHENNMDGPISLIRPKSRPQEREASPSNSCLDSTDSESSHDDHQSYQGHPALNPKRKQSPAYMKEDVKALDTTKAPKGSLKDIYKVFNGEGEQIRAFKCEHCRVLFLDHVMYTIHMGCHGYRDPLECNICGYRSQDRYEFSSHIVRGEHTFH
GSPT1, sequence (P15170 whole entry, the tested form may be a part): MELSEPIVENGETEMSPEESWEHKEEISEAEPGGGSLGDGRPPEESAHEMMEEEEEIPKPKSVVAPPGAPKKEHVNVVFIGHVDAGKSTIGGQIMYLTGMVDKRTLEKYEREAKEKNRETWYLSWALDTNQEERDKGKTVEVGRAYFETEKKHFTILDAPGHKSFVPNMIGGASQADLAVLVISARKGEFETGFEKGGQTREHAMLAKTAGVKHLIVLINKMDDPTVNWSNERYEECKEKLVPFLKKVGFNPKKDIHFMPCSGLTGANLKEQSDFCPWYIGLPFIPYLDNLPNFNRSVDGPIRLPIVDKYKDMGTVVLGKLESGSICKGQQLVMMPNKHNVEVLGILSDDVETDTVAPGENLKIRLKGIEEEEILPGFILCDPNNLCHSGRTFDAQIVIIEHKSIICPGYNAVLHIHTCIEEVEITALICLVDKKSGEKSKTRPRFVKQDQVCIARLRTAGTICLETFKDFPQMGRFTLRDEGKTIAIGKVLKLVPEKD
GSPT1, sequence (Q96SW2 whole entry, the tested form may be a part): as the sequence (Q96SW2 whole entry, the tested form may be a part) above
GSPT1, sequence (Q16531 whole entry partner, the tested form may be a part): as the sequence (Q16531 whole entry partner, the tested form may be a part) above
T2 sequence (Q13422 83-213 isoform Q13422-7 limits assumed): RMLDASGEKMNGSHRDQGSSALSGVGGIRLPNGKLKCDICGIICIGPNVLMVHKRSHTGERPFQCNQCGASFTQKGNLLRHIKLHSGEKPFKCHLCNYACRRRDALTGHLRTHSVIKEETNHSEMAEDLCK
T2 sequence (Q96SW2 whole entry partner, the tested form may be a part): as the sequence (Q96SW2 whole entry, the tested form may be a part) above
T2 sequence (Q16531 2-1140 partner limits assumed): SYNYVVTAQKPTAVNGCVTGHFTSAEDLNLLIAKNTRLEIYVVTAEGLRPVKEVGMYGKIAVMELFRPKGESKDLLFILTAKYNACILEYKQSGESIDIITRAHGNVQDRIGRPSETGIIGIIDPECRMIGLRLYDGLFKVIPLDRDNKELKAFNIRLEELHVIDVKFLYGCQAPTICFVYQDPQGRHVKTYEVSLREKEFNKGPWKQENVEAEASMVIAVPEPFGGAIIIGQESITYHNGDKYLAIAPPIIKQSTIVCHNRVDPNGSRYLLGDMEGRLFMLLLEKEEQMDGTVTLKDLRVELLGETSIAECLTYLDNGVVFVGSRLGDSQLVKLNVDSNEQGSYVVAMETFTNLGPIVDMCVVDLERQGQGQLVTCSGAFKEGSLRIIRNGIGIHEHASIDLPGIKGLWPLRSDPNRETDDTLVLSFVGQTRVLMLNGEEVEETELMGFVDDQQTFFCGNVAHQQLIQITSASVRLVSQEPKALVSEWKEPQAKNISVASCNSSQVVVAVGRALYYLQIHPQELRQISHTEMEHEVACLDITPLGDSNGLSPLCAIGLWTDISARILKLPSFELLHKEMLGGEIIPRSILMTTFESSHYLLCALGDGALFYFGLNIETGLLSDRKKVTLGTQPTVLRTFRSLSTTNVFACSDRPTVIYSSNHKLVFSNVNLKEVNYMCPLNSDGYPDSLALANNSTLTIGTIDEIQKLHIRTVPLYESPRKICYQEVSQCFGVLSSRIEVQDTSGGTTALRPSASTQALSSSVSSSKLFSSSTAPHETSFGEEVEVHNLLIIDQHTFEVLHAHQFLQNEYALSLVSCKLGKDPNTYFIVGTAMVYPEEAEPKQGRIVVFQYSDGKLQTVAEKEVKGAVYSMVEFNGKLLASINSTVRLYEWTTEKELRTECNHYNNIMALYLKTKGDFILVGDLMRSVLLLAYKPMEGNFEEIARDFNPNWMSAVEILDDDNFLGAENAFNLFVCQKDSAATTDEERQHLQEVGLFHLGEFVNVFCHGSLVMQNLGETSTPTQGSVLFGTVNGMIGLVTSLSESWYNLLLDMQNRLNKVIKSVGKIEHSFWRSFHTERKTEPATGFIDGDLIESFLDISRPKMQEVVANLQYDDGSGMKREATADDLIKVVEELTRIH

Structure (SMILES)	TR-FRET-IKZF2 (Normalized to CC-885) (CRBN and Helios (IKZF2); [1])	TR-FRET-IKZF2 (Normalized to CC-885) (CRBN and Helios (IKZF2); [2])	TR-FRET-IKZF2 (Normalized to CC-885) (CRBN and Helios (IKZF2); [3])	IKZF2 GFP/RFP Relative Abundance (IKZF2; [4])	IKZF2 GFP/RFP Relative Abundance (IKZF2; [5])	IKZF2 GFP/RFP Relative Abundance (IKZF2; [6])	IKZF1 GFP/RFP Relative Abundance (IKZF1; [4])	IKZF1 GFP/RFP Relative Abundance (IKZF1; [5])	IKZF1 GFP/RFP Relative Abundance (IKZF1; [6])	SALL4 ZNF1-2 GFP/RFP Relative Abundance (SALL4 ZNF1-2; [4])	SALL4 ZNF1-2 GFP/RFP Relative Abundance (SALL4 ZNF1-2; [5])	SALL4 ZNF1-2 GFP/RFP Relative Abundance (SALL4 ZNF1-2; [6])	GSPT1 GFP/RFP Relative Abundance (GSPT1; [4])	GSPT1 GFP/RFP Relative Abundance (GSPT1; [5])	GSPT1 GFP/RFP Relative Abundance (GSPT1; [6])
CN(C)C(=O)Cc1cccc(NC2=CC(=O)N(C3CCC(=O)NC3=O)C2=O)c1 (stereo not drawn) [Compound 35, 2-(3-((1-(2,6-dioxopiperidin-3-yl)-2,5-dioxo-2,5-dihydro-1H-pyrrol-3-yl)amino)phenyl)-N,N-dimethylacetamide]	0.520	0.447	0.402	0.667	0.709	0.806	0.154	0.181	0.182	0.928	0.903	0.888	0.975	1.074	0.938
Cc1ccc(NC2=CC(=O)N(C3CCC(=O)NC3=O)C2=O)cc1C (stereo not drawn) [Compound 24, 3-(3-((3,4-dimethylphenyl)amino)-2,5-dioxo-2,5-dihydro-1H-pyrrol-1-yl)piperidine-2,6-dione]	0.391	0.344	0.282	0.959	0.954	1.038	0.236	0.342	0.369	0.937	0.941	0.942	1.153	1.221	1.218
CN(C)C(=O)Cc1ccc(NC2=CC(=O)N(C3CCC(=O)NC3=O)C2=O)cc1 (stereo not drawn) [Compound 36, 2-(4-((1-(2,6-dioxopiperidin-3-yl)-2,5-dioxo-2,5-dihydro-1H-pyrrol-3-yl)amino)phenyl)-N,N-dimethylacetamide]	0.183	0.148	0.115	0.943	1.027	1.049	0.687	0.796	0.860	1.000	1.033	0.974	1.112	1.009	1.006
O=C1CCC(N2C(=O)C=C(Nc3ccc(-n4ccnc4)cc3)C2=O)C(=O)N1 (stereo not drawn) [Compound 29, 3-(3-((4-(1H-imidazol-1-yl)phenyl)amino)-2,5-dioxo-2,5-dihydro-1H-pyrrol-1-yl)piperidine-2,6-dione]	0.347	0.297	0.270	0.982	1.005	0.942	0.495	0.516	0.602	0.958	0.913	0.908	0.790	0.913	0.729
